Our source for the EC50 values is PMC11875992 (Cancer research, 2025).

Usually EC50 stands for the midpoint of the concentration-response curve. High values mean lower potency in that assay, low ones higher potency in that assay.

One assay addresses KRAS G13D (Homo sapiens, UniProt P01116, G13D). Briefly: cellular thermal stability assay in HCT-116 lysates, western blot. In kind it is biochemical.
The target in a further assay is KRAS G12C (Homo sapiens, UniProt P01116, G12C). Put plainly: cellular thermal stability assay. In kind it is cell-based.
KRAS G12C, sequence (P01116 2-186 G12C): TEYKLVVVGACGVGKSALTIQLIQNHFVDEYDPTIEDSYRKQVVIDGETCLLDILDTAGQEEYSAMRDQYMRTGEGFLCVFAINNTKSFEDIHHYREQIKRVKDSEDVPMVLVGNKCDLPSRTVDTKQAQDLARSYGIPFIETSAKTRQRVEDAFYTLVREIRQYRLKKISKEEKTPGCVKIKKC

KRAS G13D, sequence (P01116 2-186 G13D): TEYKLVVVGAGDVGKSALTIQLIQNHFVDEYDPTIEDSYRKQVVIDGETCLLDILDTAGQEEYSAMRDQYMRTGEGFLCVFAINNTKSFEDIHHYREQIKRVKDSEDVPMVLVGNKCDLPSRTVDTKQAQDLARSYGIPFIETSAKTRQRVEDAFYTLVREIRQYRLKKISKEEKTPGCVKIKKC

In the case of `COc1cc(/C=C2/C(C)=C(CC(=O)NCc3ccco3)c3cc(F)ccc32)cc(OC)c1O` [ADT-007, (Z)-2-(5-fluoro-1-(4-hydroxy-3,5-dimethoxybenzylidene)-2-methyl-1H-inden-3-yl)-N-(furan-2-ylmethyl)acetamide], the concentration giving a half-maximal response (EC50) turned out to be 0.45 nM at KRAS G13D and 8.49 nM at KRAS G12C.
